# Calls of active or inactive are those of the source.
# Tests used:
# [1] = biological target: Ras and Rab interactor 1/Tyrosine-protein kinase ABL1 (Homo sapiens, UniProt P00519+Q13671); type: functional;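 note: biochemical TR-FRET dose-response test measuring inhibition of binding between Rin1 and Abl proteins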
# INS1 = test: INS-1E survival protection against cytokine death – cell-based, luminescence, retest, dose response (AID 449756); type: functional; conditions: Rattus norvegicus;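 note: cell death triggered by IL-1 beta plus TNF-alpha plus IFN-gamma mixture; protective hits raise ATP signal compared with cytokine alone wells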
# [2] = biological target: T1, Apoptotic protease-activating factor 1 (Homo sapiens, UniProt O14727); type: functional
# T1 sequence (O14727 whole entry): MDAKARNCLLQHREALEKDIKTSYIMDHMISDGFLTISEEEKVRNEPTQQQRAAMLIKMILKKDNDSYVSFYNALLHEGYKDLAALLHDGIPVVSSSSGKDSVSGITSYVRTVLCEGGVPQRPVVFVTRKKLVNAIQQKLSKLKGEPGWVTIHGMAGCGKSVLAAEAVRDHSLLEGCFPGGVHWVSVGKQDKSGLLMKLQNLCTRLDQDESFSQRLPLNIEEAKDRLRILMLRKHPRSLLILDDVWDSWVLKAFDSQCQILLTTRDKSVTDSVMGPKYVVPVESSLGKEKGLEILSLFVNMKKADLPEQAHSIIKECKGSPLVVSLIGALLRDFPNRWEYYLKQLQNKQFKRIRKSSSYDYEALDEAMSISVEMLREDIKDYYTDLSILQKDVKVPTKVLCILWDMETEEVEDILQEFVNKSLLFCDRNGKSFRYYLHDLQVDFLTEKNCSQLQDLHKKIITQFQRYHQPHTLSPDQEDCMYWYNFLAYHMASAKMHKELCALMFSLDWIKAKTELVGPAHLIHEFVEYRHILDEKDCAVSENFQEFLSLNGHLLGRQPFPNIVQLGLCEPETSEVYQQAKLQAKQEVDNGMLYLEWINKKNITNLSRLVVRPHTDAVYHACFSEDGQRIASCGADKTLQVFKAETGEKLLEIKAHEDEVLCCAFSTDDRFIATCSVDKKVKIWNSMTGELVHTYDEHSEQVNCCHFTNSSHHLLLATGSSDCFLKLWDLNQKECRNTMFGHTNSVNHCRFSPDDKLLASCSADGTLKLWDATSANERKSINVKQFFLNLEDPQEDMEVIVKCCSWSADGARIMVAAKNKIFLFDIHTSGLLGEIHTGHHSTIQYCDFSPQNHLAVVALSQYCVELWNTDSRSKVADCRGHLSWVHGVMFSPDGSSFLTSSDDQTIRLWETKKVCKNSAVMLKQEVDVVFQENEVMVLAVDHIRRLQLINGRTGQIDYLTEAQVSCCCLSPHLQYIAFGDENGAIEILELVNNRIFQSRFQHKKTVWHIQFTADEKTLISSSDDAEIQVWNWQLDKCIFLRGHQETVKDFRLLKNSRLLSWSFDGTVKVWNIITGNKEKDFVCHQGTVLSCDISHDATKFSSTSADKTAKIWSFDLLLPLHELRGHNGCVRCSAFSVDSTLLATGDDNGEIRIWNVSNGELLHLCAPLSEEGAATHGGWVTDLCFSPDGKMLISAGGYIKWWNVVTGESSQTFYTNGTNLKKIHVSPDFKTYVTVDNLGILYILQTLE
# Vero [3] = test: cells; type: functional; conditions: Chlorocebus sabaeus
# Vero [4] = test: cells; type: functional, cell-based; conditions: Chlorocebus sabaeus
# Vero [5] = test: viability of Vero cells under compound – cytotoxicity control for flavivirus capping enzyme inhibitors (AID 588742); type: functional; conditions: Chlorocebus sabaeus
# Insulin-degrading enzyme [6] = biological target: T2, Insulin-degrading enzyme (Homo sapiens, UniProt P14735); test: cellular IDE activation of Abeta substrate cleavage – fluorescence polarization, HEK cells, dose response (AID 588439); type: functional, cell-based
# T2 sequence (P14735 whole entry): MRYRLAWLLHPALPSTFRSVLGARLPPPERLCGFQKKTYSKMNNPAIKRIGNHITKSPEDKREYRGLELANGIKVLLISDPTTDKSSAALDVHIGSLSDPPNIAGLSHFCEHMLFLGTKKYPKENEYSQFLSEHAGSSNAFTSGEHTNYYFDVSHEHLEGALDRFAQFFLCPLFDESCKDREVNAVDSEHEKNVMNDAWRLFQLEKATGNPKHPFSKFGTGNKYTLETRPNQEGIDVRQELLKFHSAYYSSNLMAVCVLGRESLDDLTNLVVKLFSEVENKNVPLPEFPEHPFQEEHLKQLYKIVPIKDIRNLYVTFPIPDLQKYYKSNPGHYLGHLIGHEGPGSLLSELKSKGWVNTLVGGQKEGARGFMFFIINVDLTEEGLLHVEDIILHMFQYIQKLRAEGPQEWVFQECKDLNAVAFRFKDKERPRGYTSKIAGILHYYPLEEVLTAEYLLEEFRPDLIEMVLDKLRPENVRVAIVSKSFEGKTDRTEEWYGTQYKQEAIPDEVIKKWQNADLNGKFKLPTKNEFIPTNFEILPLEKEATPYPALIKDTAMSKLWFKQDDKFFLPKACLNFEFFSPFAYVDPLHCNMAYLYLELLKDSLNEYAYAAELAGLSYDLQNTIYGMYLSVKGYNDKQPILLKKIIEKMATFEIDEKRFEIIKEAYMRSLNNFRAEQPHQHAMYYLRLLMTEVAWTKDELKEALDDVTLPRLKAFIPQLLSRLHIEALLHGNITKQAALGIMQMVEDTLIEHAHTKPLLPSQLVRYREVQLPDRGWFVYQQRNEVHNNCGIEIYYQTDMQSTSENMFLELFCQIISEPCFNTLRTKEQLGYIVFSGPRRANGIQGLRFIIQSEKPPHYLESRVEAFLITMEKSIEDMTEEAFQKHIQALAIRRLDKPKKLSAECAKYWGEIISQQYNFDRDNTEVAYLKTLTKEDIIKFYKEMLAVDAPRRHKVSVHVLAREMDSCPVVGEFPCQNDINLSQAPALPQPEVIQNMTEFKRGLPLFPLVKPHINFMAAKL
# HEK293 [7] = test: membrane integrity loss in HEK cells – cell-based, fluorescence, cytotoxicity control for IDE activator project, dose response (AID 588440); type: functional; conditions: Homo sapiens;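 note: cytotoxicity by LDH release measuring loss of membrane integrity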
# Insulin-degrading enzyme [8] = biological target: T2, Insulin-degrading enzyme; test: recombinant IDE activation, cell-free – biochemical, fluorescence polarization, counter-screen for IDE activator project, dose response (AID 588681)
# HEK293 [9] = test: optical interference in Abeta FP readout, dose response, artefact control for IDE activator project, biochemical, fluorescence polarization (AID 588442); type: functional, cell-based; conditions: Homo sapiens
# [10] = biological target: T3, Endoribonuclease toxin MazF (Escherichia coli K-12, UniProt P0AE70); test: activation of MazEF endoribonuclease cleavage – biochemical, fluorescence, single-stranded RNA substrate, uHTS hits, dose response (AID 588481); type: functional
# T3 sequence (P0AE70 whole entry): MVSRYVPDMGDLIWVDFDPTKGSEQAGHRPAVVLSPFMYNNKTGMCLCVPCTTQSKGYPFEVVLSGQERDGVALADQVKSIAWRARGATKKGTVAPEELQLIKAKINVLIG
# [11] = biological target: T3, Endoribonuclease toxin MazF; test: substrate-only fluorescence increase artefacts – biochemical, single-stranded RNase substrate, counter-screen for MazEF activator project, dose response (AID 588502); type: functional
# P388/ADR = test: cells; type: functional; conditions: Mus musculus
# SN12K1 = test: cells; type: functional; conditions: Homo sapiens
# [12] = biological target: Aryl hydrocarbon receptor (Homo sapiens, UniProt P35869); conditions: Potency;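 note: confirmatory quantitative high-throughput screen measuring activation of the AhR signaling pathway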
# Chain of Aryl hydrocarbon receptor (P35869 whole entry): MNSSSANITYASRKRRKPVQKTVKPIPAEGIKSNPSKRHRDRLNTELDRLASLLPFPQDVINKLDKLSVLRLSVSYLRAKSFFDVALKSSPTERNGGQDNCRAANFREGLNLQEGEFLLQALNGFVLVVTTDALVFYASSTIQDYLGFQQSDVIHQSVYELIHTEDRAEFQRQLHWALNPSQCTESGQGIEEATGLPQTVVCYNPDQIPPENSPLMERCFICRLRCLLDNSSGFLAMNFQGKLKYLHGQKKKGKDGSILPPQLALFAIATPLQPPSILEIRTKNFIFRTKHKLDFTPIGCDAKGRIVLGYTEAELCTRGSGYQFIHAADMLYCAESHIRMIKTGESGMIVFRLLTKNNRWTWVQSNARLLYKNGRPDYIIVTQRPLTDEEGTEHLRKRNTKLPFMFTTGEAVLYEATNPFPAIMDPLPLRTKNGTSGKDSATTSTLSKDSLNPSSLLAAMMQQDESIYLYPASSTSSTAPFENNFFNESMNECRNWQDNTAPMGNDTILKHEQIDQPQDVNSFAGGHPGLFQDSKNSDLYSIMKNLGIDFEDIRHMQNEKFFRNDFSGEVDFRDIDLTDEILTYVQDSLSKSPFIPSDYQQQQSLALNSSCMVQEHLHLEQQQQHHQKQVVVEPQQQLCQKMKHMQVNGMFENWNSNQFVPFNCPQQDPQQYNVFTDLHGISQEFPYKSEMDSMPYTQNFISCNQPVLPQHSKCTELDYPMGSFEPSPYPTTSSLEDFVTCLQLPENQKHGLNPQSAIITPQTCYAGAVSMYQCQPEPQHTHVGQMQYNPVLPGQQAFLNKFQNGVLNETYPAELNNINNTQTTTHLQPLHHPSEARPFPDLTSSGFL
# P388 = test: cells; type: functional; conditions: Mus musculus
# Beta-galactosidase = Beta-galactosidase (Escherichia coli, UniProt Q8VNN2); test: PubChem AID 485352; type: functional
# Chain of Beta-galactosidase (Q8VNN2 whole entry): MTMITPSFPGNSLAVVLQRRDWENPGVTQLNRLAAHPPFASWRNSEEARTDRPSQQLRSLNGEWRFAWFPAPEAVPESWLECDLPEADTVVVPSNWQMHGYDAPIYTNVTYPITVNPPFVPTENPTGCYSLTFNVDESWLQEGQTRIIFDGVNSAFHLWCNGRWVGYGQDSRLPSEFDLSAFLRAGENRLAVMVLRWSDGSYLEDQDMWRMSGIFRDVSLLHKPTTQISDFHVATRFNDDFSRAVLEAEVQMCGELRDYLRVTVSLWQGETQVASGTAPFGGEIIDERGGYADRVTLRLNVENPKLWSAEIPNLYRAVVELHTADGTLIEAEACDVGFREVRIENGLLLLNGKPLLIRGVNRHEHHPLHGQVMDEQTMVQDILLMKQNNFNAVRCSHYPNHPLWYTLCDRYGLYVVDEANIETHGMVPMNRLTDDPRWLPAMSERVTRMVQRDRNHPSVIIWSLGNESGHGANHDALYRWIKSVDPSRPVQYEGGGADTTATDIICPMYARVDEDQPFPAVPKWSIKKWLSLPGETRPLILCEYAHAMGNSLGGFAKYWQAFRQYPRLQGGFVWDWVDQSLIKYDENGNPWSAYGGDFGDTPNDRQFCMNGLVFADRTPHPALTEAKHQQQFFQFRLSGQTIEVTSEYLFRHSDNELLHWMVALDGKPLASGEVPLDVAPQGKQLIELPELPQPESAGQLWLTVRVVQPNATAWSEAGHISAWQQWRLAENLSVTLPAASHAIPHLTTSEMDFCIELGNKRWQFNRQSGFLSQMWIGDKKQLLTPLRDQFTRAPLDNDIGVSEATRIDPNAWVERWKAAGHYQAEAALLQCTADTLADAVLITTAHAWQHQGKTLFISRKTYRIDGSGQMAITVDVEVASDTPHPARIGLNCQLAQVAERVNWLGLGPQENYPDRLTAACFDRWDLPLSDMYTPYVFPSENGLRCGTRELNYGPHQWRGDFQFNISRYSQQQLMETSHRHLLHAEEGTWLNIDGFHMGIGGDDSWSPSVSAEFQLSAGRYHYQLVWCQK
# [13] = biological target: T4, Type-1 angiotensin II receptor (Homo sapiens, UniProt P30556); test: antagonism of angiotensin II type 1 receptor – cell-based, uHTS hits, selectivity assay for APJ receptor antagonist project, dose response (AID 463214); type: functional;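 note: antagonist potency against angiotensin II stimulated AT1 response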
# T4 sequence (P30556 whole entry): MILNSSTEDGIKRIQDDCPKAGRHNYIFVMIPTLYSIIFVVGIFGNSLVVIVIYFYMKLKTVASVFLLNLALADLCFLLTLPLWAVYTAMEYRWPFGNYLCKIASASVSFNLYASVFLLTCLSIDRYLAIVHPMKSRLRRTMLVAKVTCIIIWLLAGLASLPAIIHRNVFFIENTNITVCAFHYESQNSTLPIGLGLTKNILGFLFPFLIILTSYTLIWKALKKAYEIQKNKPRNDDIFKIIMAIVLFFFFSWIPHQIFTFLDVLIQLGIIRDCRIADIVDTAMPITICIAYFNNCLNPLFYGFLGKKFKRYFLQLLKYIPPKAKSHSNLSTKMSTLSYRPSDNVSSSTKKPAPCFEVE
# Melanocortin receptor 4 = Melanocortin receptor 4 (Homo sapiens, UniProt P32245); type: functional, cell-based;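 note: Cell-based assay with luminescence read-out, confirmatory dose-response testing for agonist activity of biased ligands at MC4R; human U2OS cells with tagged receptor and beta-arrestin; potency of agonists that increase receptor coupling to beta-arrestin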
# Chain of Melanocortin receptor 4 (P32245 whole entry): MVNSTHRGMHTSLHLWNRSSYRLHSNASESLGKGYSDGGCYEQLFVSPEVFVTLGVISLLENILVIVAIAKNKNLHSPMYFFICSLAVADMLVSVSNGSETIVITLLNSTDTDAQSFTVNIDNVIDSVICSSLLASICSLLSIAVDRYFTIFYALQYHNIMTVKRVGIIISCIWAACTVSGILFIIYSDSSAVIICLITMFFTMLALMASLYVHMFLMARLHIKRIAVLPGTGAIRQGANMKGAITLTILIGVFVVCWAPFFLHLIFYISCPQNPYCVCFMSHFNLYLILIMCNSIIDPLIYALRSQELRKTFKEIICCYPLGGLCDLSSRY
# [14] = system: Streptococcus sp. 'group A'; test: Streptococcus pyogenes SK(-)GAS viability under kanamycin – luminescence, BacTiterGlo, confirmation, counter-screen for streptokinase expression inhibitor project, dose response (AID 1900); type: functional, organism-based
# Streptococcus = test: GAS UMAA2166 growth inhibition – luminescence, BacTiterGlo, counter-screen for streptokinase expression inhibitor project, dose response (AID 1915); type: functional, organism-based;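 note: potency for reduction of bacterial viability or growth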
# Genome polyprotein = Genome polyprotein (dengue virus type 2, UniProt P29990); test: flavivirus cap methylation enzyme inhibition – biochemical, confirmation dose response, primary screen (AID 588689); type: functional
# Chain of Genome polyprotein (P29990 2492-3391 limits assumed): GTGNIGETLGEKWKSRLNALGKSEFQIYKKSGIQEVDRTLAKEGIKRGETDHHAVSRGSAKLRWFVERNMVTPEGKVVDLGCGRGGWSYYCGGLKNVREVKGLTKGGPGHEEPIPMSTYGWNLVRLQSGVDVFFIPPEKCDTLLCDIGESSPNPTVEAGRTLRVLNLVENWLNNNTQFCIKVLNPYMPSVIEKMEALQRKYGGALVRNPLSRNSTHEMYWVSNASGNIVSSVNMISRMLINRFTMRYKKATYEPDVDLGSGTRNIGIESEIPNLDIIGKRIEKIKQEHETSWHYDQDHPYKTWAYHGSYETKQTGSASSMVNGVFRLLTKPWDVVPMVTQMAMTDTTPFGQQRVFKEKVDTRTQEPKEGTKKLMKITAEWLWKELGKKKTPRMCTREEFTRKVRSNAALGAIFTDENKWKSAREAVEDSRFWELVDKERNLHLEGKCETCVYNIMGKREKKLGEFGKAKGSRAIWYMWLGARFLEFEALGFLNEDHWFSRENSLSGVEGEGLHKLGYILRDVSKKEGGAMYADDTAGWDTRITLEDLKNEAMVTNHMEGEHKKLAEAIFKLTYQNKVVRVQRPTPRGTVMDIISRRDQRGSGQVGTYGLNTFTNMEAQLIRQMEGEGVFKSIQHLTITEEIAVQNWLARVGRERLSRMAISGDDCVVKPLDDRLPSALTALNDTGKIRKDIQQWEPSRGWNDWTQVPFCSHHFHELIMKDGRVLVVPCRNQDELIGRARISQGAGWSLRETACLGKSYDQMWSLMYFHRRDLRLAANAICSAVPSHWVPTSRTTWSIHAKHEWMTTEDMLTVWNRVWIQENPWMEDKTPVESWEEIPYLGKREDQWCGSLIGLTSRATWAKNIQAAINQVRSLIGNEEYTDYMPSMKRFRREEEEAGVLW
# Phospholipase A2 = Phospholipase A2 (Homo sapiens, UniProt P04054); type: functional;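 note: confirmatory dose-response counterscreen on phospholipase A2, testing hits that came from an ultra-high-throughput screen for ATG4B inhibitors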
# Chain of Phospholipase A2 (P04054 whole entry): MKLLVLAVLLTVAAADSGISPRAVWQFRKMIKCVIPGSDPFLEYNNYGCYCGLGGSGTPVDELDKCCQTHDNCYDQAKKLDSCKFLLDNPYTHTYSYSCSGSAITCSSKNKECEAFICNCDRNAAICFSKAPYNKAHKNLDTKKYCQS
# Cysteine protease ATG4B = biological target: T5, Cysteine protease ATG4B (Homo sapiens, UniProt Q9Y4P1); type: functional;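 note: Fluorescence-based dose-response confirmation assay measuring inhibition of ATG4B activity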
# T5 sequence (Q9Y4P1 whole entry): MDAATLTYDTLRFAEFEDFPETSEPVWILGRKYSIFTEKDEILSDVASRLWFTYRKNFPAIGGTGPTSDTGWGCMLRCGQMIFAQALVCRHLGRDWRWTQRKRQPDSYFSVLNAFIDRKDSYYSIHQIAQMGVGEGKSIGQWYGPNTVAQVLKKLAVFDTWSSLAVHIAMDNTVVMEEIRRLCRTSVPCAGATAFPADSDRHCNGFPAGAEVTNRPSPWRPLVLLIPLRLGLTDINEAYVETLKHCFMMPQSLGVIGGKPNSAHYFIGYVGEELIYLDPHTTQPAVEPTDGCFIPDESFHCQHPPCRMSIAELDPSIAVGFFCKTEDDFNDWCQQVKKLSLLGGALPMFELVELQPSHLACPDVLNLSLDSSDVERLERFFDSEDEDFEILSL
smiles,measurement,setting,value
COc1cccc(CSc2nnc(CSc3nc4nc(C)cc(C)n4n3)s2)c1,IC50,[1],7.8 µM (active)
Oc1ccc(Br)cc1CNc1cccc2cccnc12,AC50,INS1,3.24 µM (active)
same,IC50,[2],34.6 µM (active)
CN(C)c1ccc(C=C2C(=O)NC(=S)NC2=O)cc1,CC50,Vero [3],22.2 µM (active)
same,IC50,Vero [4],> 25 µM (active)
same,CC50,Vero [5],31.4 µM (active)
Cc1ccc(N/C=C(\C#N)S(=O)(=O)c2ccccc2)cc1,EC50,Insulin-degrading enzyme [6],> 54.7 µM (inactive)
same,IC50,HEK293 [7],> 89.3 µM (inactive)
same,EC50,Insulin-degrading enzyme [8],> 54.7 µM (inactive)
same,EC50,HEK293 [9],> 56 µM (inactive)
COC(=O)CSc1nc2cc(OC)ccc2cc1C#N,EC50,[10],> 99 µM (inactive)
same,EC50,[11],48.4 µM (inactive)
O=C1C=C2C(=CCOC2O)O1 (stereo unspecified) [PATULIN],GI50,P388/ADR,318 nM (active)
same,GI50,SN12K1,998 nM (active)
same,AC50,[12],12.6 µM (inconclusive)
same,GI50,P388,135 nM (active)
CC1(C)Oc2ccc3ccc(=O)oc3c2C(/C=N/NC(N)=O)=C1O,EC50,Beta-galactosidase,> 40 µM (inactive)
same,IC50,[13],> 40 µM (not active)
CC1=C(C(=O)OCc2ccccc2)C(c2ccc(Br)cc2)NC(=O)N1CCCCCC(=O)O (stereo unspecified),EC50,Insulin-degrading enzyme [6],> 54.7 µM (inactive)
same,IC50,HEK293 [7],> 89.2 µM (inactive)
same,EC50,Insulin-degrading enzyme [8],> 54.7 µM (inactive)
same,EC50,HEK293 [9],> 55.9 µM (inactive)
COc1ccc(-c2cc(NC(C)=O)c3ncc(-c4cccc(C(F)(F)F)c4)n3c2)c(OC)c1,EC50,Melanocortin receptor 4,> 89.2 µM (inactive)
O=C(CN1c2ccccc2Sc2ccccc21)NNC(=S)Nc1ccc(Cl)cc1,EC50,[14],3.35 µM (active)
same,EC50,Beta-galactosidase,> 40 µM (inactive)
same,EC50,Streptococcus,3.6 µM (active)
same,IC50,[13],> 40 µM (not active)
CNc1ccc(/C=C(\C#N)C(=O)Nc2ccccn2)cc1[N+](=O)[O-],EC50,[10],> 99 µM (inactive)
same,EC50,[11],39.2 µM (inactive)
Cc1nn(C)c(Oc2ccccc2)c1/C=N/OCc1ccc(C(=O)OC(C)(C)C)cc1 [FENPYROXYMATE],AC50,[12],44.7 µM (inconclusive)
COc1ccc(/C=C/C(=O)NC(=S)NNC(=O)c2c(-c3ccccc3)noc2C)cc1,EC50,Beta-galactosidase,> 40 µM (inactive)
same,IC50,[13],35.5 µM (not active)
Cc1ccccc1S(=O)(=O)N1[C@@H](c2ccc(Br)cc2)C(C(=O)O)=CC[C@H]1c1ccc(Cl)cc1,IC50,Genome polyprotein,41.4 µM (active)
same,IC50,Phospholipase A2,6.72 µM (active)
same,IC50,Cysteine protease ATG4B,7.71 µM (active)
same,CC50,Vero [5],> 40 µM (active)

# Source: ChEMBL document CHEMBL1201862, “PubChem BioAssay data set” (2004)
